Experimental data as given in patent US7446199B2, “Compositions useful as inhibitors of protein kinases” (Vertex Pharmaceuticals Incorporated, priority 2003, dated 2008).

Target: T1, Aurora-2 (Homo sapiens, UniProt O14965)
T1 construct: addition of 10 μL of Aurora-2 stock solution to give a final concentration of 70 nM
T1 sequence (O14965 1-403): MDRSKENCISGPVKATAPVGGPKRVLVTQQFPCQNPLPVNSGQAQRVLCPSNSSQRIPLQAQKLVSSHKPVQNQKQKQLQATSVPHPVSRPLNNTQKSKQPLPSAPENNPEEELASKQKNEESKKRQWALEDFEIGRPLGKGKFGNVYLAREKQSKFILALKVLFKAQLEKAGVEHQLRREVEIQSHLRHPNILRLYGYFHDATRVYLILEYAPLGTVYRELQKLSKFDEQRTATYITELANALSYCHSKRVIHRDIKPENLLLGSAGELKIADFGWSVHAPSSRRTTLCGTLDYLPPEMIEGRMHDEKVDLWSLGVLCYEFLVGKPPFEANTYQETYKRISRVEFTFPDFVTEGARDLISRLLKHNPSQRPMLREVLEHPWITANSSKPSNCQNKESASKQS
Test: Inhibition of AUR-2, coupled enzyme assay
Format: biochemical
Conditions: 70 nM Aurora-2, 800 μM peptide LRRASLG, 30° C.
Protocol: Compounds are screened in the following manner for their ability to inhibit Aurora-2 using a standard coupled enzyme assay (Fox et al. (1998) Protein Sci 7, 2249). To an assay stock buffer solution containing 0.1M HEPES 7.5, 10 mM MgCl2, 1 mM DTT, 25 mM NaCl, 2.5 mM phosphoenolpyruvate, […], […], […], and 800 μM peptide (LRRASLG, American Peptide, Sunnyvale, Calif.) is added a DMSO solution of a compound of the present invention to a final concentration of 30 μM. The resulting mixture is incubated at 30° C. for 10 min. The reaction was initiated by the addition of 10 μL of Aurora-2 stock solution to give a final concentration of 70 nM in the assay. The rates of reaction are obtained by monitoring absorbance at 340 nm over a 5 minute read time at 30° C. using a BioRad Ultramark plate reader (Hercules, Calif.). The Ki values are determined from the rate data as a function of inhibitor concentration.

Compound | Ki [nM]
Fc1cccc(-c2cnoc2-c2c[nH]c3ncccc23)c1F [Compound 1, 3-[4-(2,3-Difluoro-phenyl)-isoxazol-5-yl]-1H-pyrrolo[2,3-b]pyridine] | 200 to 1000
Clc1cccc(-c2cnoc2-c2c[nH]c3ncccc23)c1Cl [Compound 2, 3-[4-(2,3-Dichloro-phenyl)-isoxazol-5-yl]-1H-pyrrolo[2,3-b]pyridine] | 200 to 1000
Fc1cccc(-c2cnoc2-c2c[nH]c3ncc(Br)cc23)c1F [Compound 37, 5-Bromo-3-[4-(2,3-difluoro-phenyl)-isoxazol-5-yl]-1H-pyrrolo[2,3-b]pyridine] | < 200
COc1cnc2[nH]cc(-c3oncc3-c3cccc(F)c3F)c2c1 [Compound 38, 3-[4-(2,3-Difluoro-phenyl)-isoxazol-5-yl]-5-methoxy-1H-pyrrolo[2,3-b]pyridine] | 200 to 1000
Fc1c(Cl)cccc1-c1cnoc1-c1c[nH]c2ncccc12 [Compound 42, 3-[4-(3-Chloro-2-fluoro-phenyl)-isoxazol-5-yl]-1H-pyrrolo[2,3-b]pyridine] | 200 to 1000
Oc1cnc2[nH]cc(-c3oncc3-c3cccc(F)c3F)c2c1 [Compound 43, 3-[4-(2,3-Difluoro-phenyl)-isoxazol-5-yl]-1H-pyrrolo[2,3-b]pyridin-5-ol] | 200 to 1000
c1cnc2[nH]cc(-c3oncc3C3CCCCC3)c2c1 [Compound 47, 3-(4-Cyclohexyl-isoxazol-5-yl)-1H-pyrrolo[2,3-b]pyridine] | 200 to 1000
Fc1cccc(-c2cnoc2-c2c[nH]c3ncc(-c4ccncc4)cc23)c1F [Compound 57, 3-[4-(2,3-Difluoro-phenyl)-isoxazol-5-yl]-5-pyridin-4-yl-1H-pyrrolo[2,3-b]pyridine] | < 200
Fc1cccc(-c2cnoc2-c2c[nH]c3ncc(-c4ccccc4)cc23)c1F [Compound 58, 3-[4-(2,3-Difluoro-phenyl)-isoxazol-5-yl]-5-phenyl-1H-pyrrolo[2,3-b]pyridine] | 200 to 1000
Fc1cccc(-c2cnoc2-c2c[nH]c3ncc(-c4cccnc4)cc23)c1F [Compound 59, 3-[4-(2,3-Difluoro-phenyl)-isoxazol-5-yl]-5-pyridin-3-yl-1H-pyrrolo[2,3-b]pyridine] | < 200
CC(=O)Nc1cccc(-c2cnc3[nH]cc(-c4oncc4-c4cccc(F)c4F)c3c2)c1 [Compound 65, N-(3-{3-[4-(2,3-Difluoro-phenyl)-isoxazol-5-yl]-1H-pyrrolo[2,3-b]pyridin-5-yl}-phenyl)-acetamide] | < 200
Fc1cccc(-c2cnoc2-c2c[nH]c3ncc(-c4ncccn4)cc23)c1F [Compound 75, 3-[4-(2,3-Difluoro-phenyl)-isoxazol-5-yl]-5-pyrimidin-2-yl-1H-pyrrolo[2,3-b]pyridine] | 200 to 1000
Fc1cccc(-c2cnoc2-c2c[nH]c3ncc(-c4c[nH]cn4)cc23)c1F [Compound 76, 3-[4-(2,3-Difluoro-phenyl)-isoxazol-5-yl]-5-(3H-imidazol-4-yl)-1H-pyrrolo[2,3-b]pyridine] | < 200
CN(C)Cc1ccnc(-c2cnc3[nH]cc(-c4oncc4-c4cccc(F)c4F)c3c2)c1 [Compound 82, (2-{3-[4-(2,3-Difluoro-phenyl)-isoxazol-5-yl]-1H-pyrrolo[2,3-b]pyridin-5-yl}-pyridin-4-ylmethyl)-dimethyl-amine] | 200 to 1000
Nc1ccnc(-c2cnc3[nH]cc(-c4oncc4-c4cccc(F)c4F)c3c2)c1 [Compound 83, 2-{3-[4-(2,3-Difluoro-phenyl)-isoxazol-5-yl]-1H-pyrrolo [2,3-b]pyridin-5-yl}-pyridin-4-ylamine] | 200 to 1000
Nc1cccc(-c2cnc3[nH]cc(-c4oncc4-c4cccc(F)c4F)c3c2)c1 [Compound 86, 3-{3-[4-(2,3-Difluoro-phenyl)-isoxazol-5-yl]-1H-pyrrolo [2,3-b]pyridin-5-yl}-phenylamine] | < 200
Oc1cccc(-c2cnc3[nH]cc(-c4oncc4-c4cccc(F)c4F)c3c2)c1 [Compound 87, 3-{3-[4-(2,3-Difluoro-phenyl)-isoxazol-5-yl]-1H-pyrrolo [2,3-b]pyridin-5-yl}-phenol] | < 200
Nc1ccc(-c2cnc3[nH]cc(-c4oncc4-c4cccc(F)c4F)c3c2)cc1 [Compound 90, 4-{3-[4-(2,3-Difluoro-phenyl)-isoxazol-5-yl]-1H-pyrrolo [2,3-b]pyridin-5-yl}-phenylamine] | < 200
CN(C)Cc1ccc(-c2cnc3[nH]cc(-c4oncc4-c4cccc(F)c4F)c3c2)cc1 [Compound 91, (4-{3-[4-(2,3-Difluoro-phenyl)-isoxazol-5-yl]-1H-pyrrolo[2,3-b]pyridin-5-yl}-benzyl)-dimethyl-amine] | 200 to 1000
Fc1cccc(-c2cnoc2-c2c[nH]c3ncc(-c4ccc(CN5CCOCC5)cc4)cc23)c1F [Compound 92, 3-[4-(2,3-Difluoro-phenyl)-isoxazol-5-yl]-5-(4-morpholin-4-ylmethyl-phenyl)-1H-pyrrolo[2,3-b]pyridine] | < 200
Fc1cccc(-c2cnoc2-c2c[nH]c3ncc(-c4ccc(CN5CCCC5)cc4)cc23)c1F [Compound 93, 3-[4-(2,3-Difluoro-phenyl)-isoxazol-5-yl]-5-(4-pyrrolidin-1-ylmethyl-phenyl)-1H-pyrrolo[2,3-b]pyridine] | < 200
CN1CCN(Cc2ccc(-c3cnc4[nH]cc(-c5oncc5-c5cccc(F)c5F)c4c3)cc2)CC1 [Compound 94, 3-[4-(2,3-Difluoro-phenyl)-isoxazol-5-yl]-5-[4-(4-methyl-piperazin-1-ylmethyl)-phenyl]-1H-pyrrolo[2,3-b]pyridine] | < 200
CC(=O)Nc1ccc(-c2cnc3[nH]cc(-c4oncc4-c4cccc(F)c4F)c3c2)cc1 [Compound 95, N-(4-{3-[4-(2,3-Difluoro-phenyl)-isoxazol-5-yl]-1H-pyrrolo[2,3-b]pyridin-5-yl}-phenyl)-acetamide] | < 200
COc1cncc(-c2cnc3[nH]cc(-c4oncc4-c4cccc(F)c4F)c3c2)c1 [Compound 96, 3-[4-(2,3-Difluoro-phenyl)-isoxazol-5-yl]-5-(5-methoxy-pyridin-3-yl)-1H-pyrrolo[2,3-b]pyridine] | < 200
Cc1noc(-c2c[nH]c3ncccc23)c1-c1cccc(F)c1F [Compound 134, 3-[4-(2,3-Difluoro-phenyl)-3-methyl-isoxazol-5-yl]-1H-pyrrolo[2,3-b]pyridine] | 200 to 1000
O=c1[nH]ccc2c(-c3oncc3-c3cccc(F)c3F)c[nH]c12 [Compound 145, 3-[4-(2,3-Difluoro-phenyl)-isoxazol-5-yl]-1,6-dihydro-pyrrolo[2,3-c]pyridin-7-one] | 200 to 1000
